From patent US9403830B2, “Inhibitors of leukotriene production” (Boehringer Ingelheim International GmbH, priority 2012, dated 2016)

What was measured:
human LTA4 hydrolase = target: T1, human LTA4 hydrolase (Homo sapiens, UniProt P09960); test: LTA4H Enzyme assay (peptidase, Arg-AMC cleavage); type: biochemical; conditions: LTA4H enzyme 1 nM, Arg-AMC substrate 50 μM, room temperature 1 h, fluorescence 380/460 nm
T1 sequence (P09960 1-611): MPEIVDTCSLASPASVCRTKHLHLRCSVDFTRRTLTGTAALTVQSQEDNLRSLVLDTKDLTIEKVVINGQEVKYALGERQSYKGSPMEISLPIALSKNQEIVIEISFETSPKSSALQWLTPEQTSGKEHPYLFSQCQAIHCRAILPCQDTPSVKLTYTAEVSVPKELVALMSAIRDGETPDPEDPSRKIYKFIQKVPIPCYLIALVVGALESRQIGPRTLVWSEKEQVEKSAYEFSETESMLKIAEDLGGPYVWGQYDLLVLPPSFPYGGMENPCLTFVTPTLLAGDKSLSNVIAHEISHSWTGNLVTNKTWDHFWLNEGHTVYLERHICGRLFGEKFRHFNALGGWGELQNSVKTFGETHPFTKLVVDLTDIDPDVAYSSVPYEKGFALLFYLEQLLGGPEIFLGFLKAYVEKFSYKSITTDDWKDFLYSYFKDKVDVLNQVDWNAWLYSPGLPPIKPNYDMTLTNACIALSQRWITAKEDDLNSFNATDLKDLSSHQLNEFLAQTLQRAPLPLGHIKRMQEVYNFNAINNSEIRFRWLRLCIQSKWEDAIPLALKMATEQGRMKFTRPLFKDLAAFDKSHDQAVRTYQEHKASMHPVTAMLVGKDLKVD
Protocol: The compounds of the invention are assessed for the ability to interact with human LTA4 hydrolase in an enzymatic assay that measures the ability of the enzyme to cleave the peptide bond of arginyl-aminomethylcoumarin (Arg-AMC). LTA4H Enzyme (1 nM final), Arg-AMC substrate (50 μM final), and compound are combined in a reaction buffer (50 mM Tris-HCl (pH 7.5), 100 mM KCl, 0.5% bovine serum albumin) at room temperature for 1 h. The formation of product is assessed by measuring the fluorescence of aminomethylcoumarin product (excitation wavelength 380 nm/emission wavelength 460 nm). In general, the preferred potency range (IC50) of compounds in the LTA4H Enzyme assay is between 0.1 nM to 10 μM, the more preferred potency range is 0.1 nM to 0.1 μM, and the most preferred potency range is 0.1 nM to 10 nM.

[1] = system: LTB4 synthesis in human whole blood; test: human whole blood (HWB) assay, inhibition of LTB4 production; type: cell-based; conditions: heparinized human whole blood, calcimycin 20 μM stimulation, plasma LTB4
Protocol: The compounds of the invention are additionally tested in a human whole blood (HWB) assay to determine their ability to inhibit the synthesis of LTB4 in a cellular system. Compounds are combined with heparinized human whole blood and incubated for 15 minutes at 37° C. Calcimycin (20 μM final, prepared in phosphate-buffered saline, pH 7.4) is then added and the mixture is incubated for another 30 minutes at 37° C. The samples are centrifuged for 5 min at low speed (1500×g) and the plasma layer is removed. Plasma LTB4 concentrations are then measured using an antibody-based homogenous time-resolved fluorescence method (CisBio, Bedford, Mass.). In general, the preferred potency range (IC50) of compounds in the HWB assay is between 10 nM to 10 μM, the more preferred potency range is 10 nM to 1 μM, and the most preferred potency range is 10 nM to 100 nM.

Compound	IC50 (human LTA4 hydrolase) [nM]	IC50 [1] [nM]
CC1(NC(=O)CO)CCN(Cc2ccc3cc(Oc4ccc(-c5ccn[nH]5)cn4)ccc3n2)CC1 [Example 46, 2-Hydroxy-N-(4-methyl-1-{6-[5-(2H-pyrazol-3-yl)-pyridin-2-yloxy]-quinolin-2-ylmethyl}-piperidin-4-yl)-acetamide]	1.6	540
c1cc(-c2ccc(Oc3ccc4c(cnn4CCN4CCCC4)c3)nc2)[nH]n1 [Example 83, 5-[5-(2H-Pyrazol-3-yl)-pyridin-2-yloxy]-1-(2-pyrrolidin-1-yl-ethyl)-1H-indazole]	0.88	120
CC(=O)NCCNCc1ccc2cc(Oc3ccc(-c4ccn[nH]4)cn3)ccc2n1 [Example 121, N-[2-({6-[5-(2H-Pyrazol-3-yl)-pyridin-2-yloxy]-quinolin-2-ylmethyl}-amino)-ethyl]-acetamide]	1.5	390
CC(=O)N[C@@H]1C[C@H]2CC[C@@H](C1)N2CC1Cc2ccc(Oc3ccc(-c4ccn[nH]4)cc3)cc2O1 (stereo partly drawn) [Example 142, N-((exo)-8-{6-[4-(2H-Pyrazol-3-yl)-phenoxy]-2,3-dihydro-benzofuran-2-ylmethyl}-8-aza-bicyclo[3.2.1]oct-3-yl)-acetamide]	0.25	210
COCC(=O)NC1CCN(Cc2ccc3cc(Oc4ccc(-c5cc[nH]n5)cn4)ccc3n2)CC1 [Example 236, 2-Methoxy-N-(1-{6-[5-(1H-pyrazol-3-yl)-pyridin-2-yloxy]-quinolin-2-ylmethyl}-piperidin-4-yl)-acetamide]	0.96	200
CC(=O)N[C@@H]1CCN(CCn2cc3cc(Oc4ccc(-c5ccn[nH]5)cc4)ccc3n2)C1 [Example 200, N-[(R)-1-(2-{5-[4-(2H-Pyrazol-3-yl)-phenoxy]-indazol-2-yl}-ethyl)-pyrrolidin-3-yl]-acetamide]	0.47	190
N#C[C@@H]1CCN(Cc2ccc3cc(Oc4ccc(-c5ccn[nH]5)cn4)ccc3n2)C1 [Example 107, (R)-1-{6-[5-(2H-Pyrazol-3-yl)-pyridin-2-yloxy]-quinolin-2-ylmethyl}-pyrrolidine-3-carbonitrile]	2	220
c1cc(-c2cnc(Oc3ccc4nc(CN5CCCC5)ccc4c3)nc2)[nH]n1 [Example 220, 6-[5-(2H-Pyrazol-3-yl)-pyrimidin-2-yloxy]-2-pyrrolidin-1-ylmethyl-quinoline]	1.7	160
c1cc(-c2ccc(Oc3ccc4nn(CCCN5CCCC5)cc4c3)cc2)[nH]n1 [Example 105, 5-[4-(2H-Pyrazol-3-yl)-phenoxy]-2-(3-pyrrolidin-1-yl-propyl)-2H-indazole]	0.53	200
CN(C)Cc1ccc2cc(Oc3ccc(-c4ccn[nH]4)cc3)ccc2n1 [Example 123, Dimethyl-{6-[4-(2H-pyrazol-3-yl)-phenoxy]-quinolin-2-ylmethyl}-amine]	0.44	240
OC1CCN(Cc2ccc3cc(Oc4ccc(-c5ccn[nH]5)cn4)ccc3n2)CC1 [Example 204, 1-{6-[5-(2H-Pyrazol-3-yl)-pyridin-2-yloxy]-quinolin-2-ylmethyl}-piperidin-4-ol]	0.98	210
CC(=O)N1CCN(CCn2ncc3cc(Oc4ccc(-c5ccn[nH]5)cn4)ccc32)CC1 [Example 94, 1-[4-(2-{5-[5-(2H-Pyrazol-3-yl)-pyridin-2-yloxy]-indazol-1-yl}-ethyl)-piperazin-1-yl]-ethanone]	1.3	150
c1cc(-c2ccc(Oc3ccc4c(cnn4CCN4CCOCC4)c3)cc2)[nH]n1 [Example 102, 1-(2-Morpholin-4-yl-ethyl)-5-[4-(2H-pyrazol-3-yl)-phenoxy]-1H-indazole]	0.91	190
c1cc(-c2ccc(Oc3ccc4c(c3)OC(CN3CCCC3)C4)nc2)[nH]n1 (stereo not drawn) [Example 126, 5-(2H-Pyrazol-3-yl)-2-(2-pyrrolidin-1-ylmethyl-2,3-dihydro-benzofuran-6-yloxy)-pyridine]	0.51	110
O=C1OCCN1C1CCN(Cc2ccc3cc(Oc4ccc(-c5ccn[nH]5)cn4)ccc3n2)CC1 [Example 11, 3-(1-{6-[5-(2H-pyrazol-3-yl)-pyridin-2-yloxy]-quinolin-2-ylmethyl}-piperidin-4-yl)-oxazolidin-2-one]	0.65	180
O=C1NCC[C@@H]1NCc1ccc2cc(Oc3ccc(-c4ccn[nH]4)cn3)ccc2n1 [Example 49, (S)-3-({6-[5-(2H-Pyrazol-3-yl)-pyridin-2-yloxy]-quinolin-2-ylmethyl}-amino)-pyrrolidin-2-one]	8.9	860
O=c1cccc2n1C[C@H]1C[C@@H]2CN(Cc2ccc3cc(Oc4ccc(-c5ccn[nH]5)cn4)ccc3n2)C1 [Example 213, (1R,5S)-3-{6-[5-(2H-Pyrazol-3-yl)-pyridin-2-yloxy]-quinolin-2-ylmethyl}-1,2,3,4,5,6-hexahydro-1,5-methano-pyrido[1,2-a][1,5]diazocin-8-one]	0.77	390

Further molecules by falling IC50 (human LTA4 hydrolase), results first:

IC50 (human LTA4 hydrolase) [nM]	IC50 [1] [nM]	Compound
0.4	310	COC(=O)c1ccc(C2CCN(Cc3nc4cc(Oc5ccc(-c6ccn[nH]6)cc5)ccc4[nH]3)CC2)cc1 [Example 151, 4-(1-{5-[4-(2H-Pyrazol-3-yl)-phenoxy]-1H-benzoimidazol-2-ylmethyl}-piperidin-4-yl)-benzoic acid methyl ester]
0.39	130	CC(=O)N1CCN(Cc2ccc3cc(Oc4ccc(-c5ccn[nH]5)cn4)ccc3c2)CC1 [Example 2, 1-(4-{6-[5-(2H-Pyrazol-3-yl)-pyridin-2-yloxy]-naphthalen-2-ylmethyl}-piperazin-1-yl)-ethanone]
0.35	120	COCC(=O)NC1CCN(CC2Cc3ccc(Oc4ccc(-c5ccn[nH]5)cc4)cc3O2)CC1 (stereo not drawn) [Example 170, 2-Methoxy-N-(1-{6-[4-(2H-pyrazol-3-yl)-phenoxy]-2,3-dihydro-benzofuran-2-ylmethyl}-piperidin-4-yl)-acetamide]
0.24	170	CN(Cc1nc2cc(Oc3ccc(-c4ccn[nH]4)cc3)ccc2[nH]1)C(=O)C1CC1 [Example 233, Cyclopropanecarboxylic acid methyl-{5-[4-(2H-pyrazol-3-yl)-phenoxy]-1H-benzoimidazol-2-ylmethyl}-amide]
0.19	110	CN(Cc1nc2cc(Oc3ccc(-c4ccn[nH]4)cc3)ccc2[nH]1)CC1CCOCC1 [Example 159, Methyl-{5-[4-(2H-pyrazol-3-yl)-phenoxy]-1H-benzoimidazol-2-ylmethyl}-(tetrahydro-pyran-4-ylmethyl)-amine]
0.18	170	CCNCc1nc2cc(Oc3ccc(-c4ccn[nH]4)cc3)ccc2[nH]1 [Example 191, Ethyl-{5-[4-(2H-pyrazol-3-yl)-phenoxy]-1H-benzoimidazol-2-ylmethyl}-amine]
0.17	180	FC(F)(F)C1CCN(Cc2nc3cc(Oc4ccc(-c5ccn[nH]5)cc4)ccc3[nH]2)C1 (stereo not drawn) [Example 196, 5-[4-(2H-Pyrazol-3-yl)-phenoxy]-2-(3-trifluoromethyl-pyrrolidin-1-ylmethyl}-1H-benzoimidazole]
0.17	220	c1cc(-c2ccc(Oc3ccc4[nH]c(C[C@@H]5CCCN5)nc4c3)cc2)[nH]n1 [Example 207, 5-[4-(2H-Pyrazol-3-yl)-phenoxy]-2-(S)-1-pyrrolidin-2-ylmethyl-1H-benzoimidazole]
0.14	120	COC[C@H]1CCCN1Cc1nc2cc(Oc3ccc(-c4ccn[nH]4)cc3)ccc2[nH]1 [Example 167, 2-((R)-2-Methoxymethyl-pyrrolidin-1-ylmethyl)-5-[4-(2H-pyrazol-3-yl)-phenoxy]-1H-benzoimidazole]
0.062	150	CC1(C)COCCN1Cc1nc2cc(Oc3ccc(-c4ccn[nH]4)cc3)ccc2[nH]1 [Example 182, 2-(3,3-Dimethyl-moprholin-4-ylmethyl)-5-[4-(2H-pyrazol-3-yl)-phenoxy]-1H-benzoimidazole]
